ChEMBL document CHEMBL2311374, “Anti-angiogenesis and immunomodulatory activities of an anti-tumor sesquiterpene bigelovin isolated from Inula helianthus-aquatica” (Eur J Med Chem, 2013)
The source made the active and inactive calls. The calls are words filed in the database; no cut-off is given here.

Key:
[1] = Cytotoxicity against human HMEC1 cells; type: cell-based; settings: hmec-1
HMEC-1 [2] = experiment: Inhibition of HMEC1 cells growth measured after 48 hrs by MTT assay; type: functional, cell-based; settings: Homo sapiens, HMEC-1, 48 h
Danio rerio [3] = species: Danio rerio; experiment: Anti-angiogenic activity in transgenic zebrafish Tg(fli1a:EGFP)y1 1 to 4 cell stage embryo assessed as down-regulation of Ang-2 angiogenic gene expression measured after 24 hrs by real-time PCR analysis; type: functional
Danio rerio [4] = species: Danio rerio; experiment: Anti-angiogenic activity in transgenic zebrafish Tg(fli1a:EGFP)y1 1 to 4 cell stage embryo assessed as inhibition of subintestinal vessel length measured at 25 to 100 uM after 48 hrs by fluorescent microscopy; type: functional, tissue-based
PBMC [5] = experiment: Immunomodulatory effect in phytohemagglutininin-activated human PBMC assessed as inhibition of INFgamma production measured after 24 hrs by ELISA; type: functional, cell-based
HMEC-1 [6] = experiment: Effect on cell adhesion gene expression in TNFalpha stimulated HMEC1 cells assessed as reduction in ICAM1 mRNA level at 1000 or 3000 nM measured after 12 hrs by real-time PCR analysis; type: functional, Homo sapiens; design: scale not given: the % may be the effect or the level left
HMEC-1 [7] = experiment: Effect on cell adhesion gene expression in TNFalpha stimulated HMEC1 cells assessed as reduction in E-selectin mRNA level at 1000 or 3000 nM measured after 12 hrs by real-time PCR analysis; type: functional, Homo sapiens; design: scale not given: the % may be the effect or the level left
HMEC-1 [8] = experiment: Effect on cell adhesion gene expression in TNFalpha stimulated HMEC1 cells assessed as reduction in VCAM1 mRNA level at 1000 or 3000 nM measured after 12 hrs by real-time PCR analysis; type: functional, Homo sapiens; design: scale not given: the % may be the effect or the level left
Danio rerio [9] = species: Danio rerio; experiment: Anti-angiogenic activity in transgenic zebrafish Tg(fli1a:EGFP)y1 1 to 4 cell stage embryo assessed as complete inhibition of subintestinal vessels formation measured at 100 uM after 48 hrs by fluorescent microscopy; type: functional, tissue-based
PBMC [10] = experiment: Immunomodulatory effect in phytohemagglutininin-activated human PBMC assessed as inhibition of TNFalpha production measured after 24 hrs by ELISA; type: functional, cell-based
Danio rerio [11] = species: Danio rerio; experiment: Anti-angiogenic activity in transgenic zebrafish Tg(fli1a:EGFP)y1 1 to 4 cell stage embryo assessed as down-regulation of Tie-2 angiogenic gene expression measured after 24 hrs by real-time PCR analysis; type: functional
Danio rerio [12] = species: Danio rerio; experiment: Anti-angiogenic activity in transgenic zebrafish Tg(fli1a:EGFP)y1 1 to 4 cell stage embryo assessed as down-regulation of Ang-1 angiogenic gene expression measured after 24 hrs by real-time PCR analysis; type: functional
PBMC [13] = experiment: Immunomodulatory effect in phytohemagglutininin-activated human PBMC assessed as inhibition of IL12 production measured after 24 hrs by ELISA; type: functional, cell-based
HMEC-1 [14] = experiment: Inhibition of HMEC1 cells growth measured after 48 hrs; type: functional, cell-based; settings: Homo sapiens, HMEC-1, 48 h
[15] = Cytotoxicity against human HMEC1 cells at 1000 or 3000 nM measured after 12 hrs by MTT assay; type: cell-based; settings: hmec-1, 12 h
PBMC [16] = experiment: Cytotoxicity against human PBMC at 62.5 to 250 nM for 72 hrs by XTT assay; type: cell-based; settings: 0.25 µM
HMEC-1 [17] = experiment: Effect on cell adhesion gene expression in TNFalpha stimulated HMEC1 cells assessed as reduction in E-selectin protern expression at 1000 or 3000 nM measured after 24 hrs by Western blotting; type: functional, cell-based; settings: Homo sapiens
HMEC-1 [18] = experiment: Antimigratory activity against HMEC1 cells assessed as decrease in cell motility measured after 24 hrs by scratch wound assay; type: functional, cell-based; settings: Homo sapiens
PBMC [19] = experiment: Immunomodulatory effect in phytohemagglutininin-activated human PBMC assessed as inhibition of IL2 production measured after 24 hrs by ELISA; type: functional, cell-based
Danio rerio [20] = species: Danio rerio; experiment: Anti-angiogenic activity in transgenic zebrafish Tg(fli1a:EGFP)y1 1 to 4 cell stage embryo assessed as inhibition of subintestinal vessels formation measured after 48 hrs by fluorescent microscopy; type: functional, tissue-based
PBMC [21] = experiment: Immunomodulatory effect in phytohemagglutininin-activated human PBMC assessed as stimulation of cell proliferation at 62.5 to 250 nM measured after 72 hrs; type: functional, cell-based
Danio rerio [22] = species: Danio rerio; experiment: Anti-angiogenic activity in transgenic zebrafish Tg(fli1a:EGFP)y1 1 to 4 cell stage embryo assessed as down-regulation of Tie-1 angiogenic gene expression measured after 24 hrs by real-time PCR analysis; type: functional
HMEC-1 [23] = experiment: Effect on cell adhesion gene expression in TNFalpha stimulated HMEC1 cells assessed as reduction in VCAM1 protern expression at 1000 or 3000 nM measured after 24 hrs by Western blotting; type: functional, cell-based; settings: Homo sapiens
HMEC-1 [24] = experiment: Inhibition of cell proliferation of HMEC1 cells assessed as [methyl-3H] thymidine incorporation measured after 48 hrs; type: functional, cell-based; settings: Homo sapiens
HMEC-1 [25] = experiment: Effect on cell adhesion gene expression in TNFalpha stimulated HMEC1 cells assessed as reduction in ICAM1 protern expression at 1000 or 3000 nM measured after 24 hrs by Western blotting; type: functional, cell-based; settings: Homo sapiens

C=C1C(=O)O[C@H]2C[C@@H](C)[C@@H]3C=CC(=O)[C@@]3(C)[C@@H](OC(C)=O)[C@H]12 [BIGELOVIN]
Activity [1]: Non-toxic | inhibition (INH) [1]: Dose-dependent effect | IC50 (HMEC-1 [2]): 2680 nM | inhibition (Danio rerio [3]): Active | inhibition (Danio rerio [4]): Active | inhibition (PBMC [5]): Dose-dependent effect | Activity (HMEC-1 [6]): 76% | inhibition (HMEC-1 [6]; Homo sapiens): Dose-dependent effect | Activity (HMEC-1 [7]): 67% | Activity (HMEC-1 [8]): 74% | inhibition (Danio rerio [9]): Active | inhibition (PBMC [10]): Dose-dependent effect | inhibition (Danio rerio [11]): Active | inhibition (Danio rerio [12]): Active | inhibition (PBMC [13]): Dose-dependent effect | IC50 (HMEC-1 [14]): 946 nM | Activity [15]: Non-toxic | Activity (PBMC [16]): Non-toxic | Activity (HMEC-1 [17]): Active | inhibition (HMEC-1 [18]): Dose-dependent effect | inhibition (PBMC [19]): Dose-dependent effect | inhibition (Danio rerio [20]): Dose-dependent effect | Activity (PBMC [21]): Active | inhibition (Danio rerio [22]): inactive | Activity (HMEC-1 [23]): Active | inhibition (HMEC-1 [24]): Dose-dependent effect | Activity (HMEC-1 [25]): Active
